{"source": "patent US11992297B2", "about": "“Monitoring method of heart rate for toxicity test using high-speed digital holography” (KOREA RESEARCH INSTITUTE OF STANDARDS AND SCIENCE, priority 2020, dated 2024)", "key": {"[1]": {"tested_on": "water flea", "settings": "for change of heart rate (final RHR) relative to the original heart rate (OHR) / decrease of heart rate (final RHR) relative to the original heart rate (OHR): FIG. 7 (C); for decrease of heart rate (final RHR) relative to the original heart rate (OHR): normalized for initial RHR; for relaxation heart rate (RHR) 0 hr / relaxation heart rate (RHR) 24 hr: average ± SD; for RHR normalization relative to 0 hr: 24 hr relative to 0 hr; for heart rate decrease after 24 hours (normalized average RHR): FIG. 8 (B),(C)", "experimental": "In the individual response evaluation apparatus, an extra-axial digital holography method was used to take a hologram of the water flea with a CCD camera.\nThe heart rate of the water flea was analyzed by the reconstructed time-resolved phase distributions, from the heart rate signal obtained by the method.\nA Fourier spectrum method was used for evaluating periodic characteristics in heart rate analysis. In (C) of FIG. 5, a one-dimensional Fourier spectrum method was used for each pixel of 1000 frame sets to calculate a two-dimensional frequency distribution of the water flea.\n2 hours after the observation, 19 mL of hydrogen peroxide having concentrations of 0.00 mM, 0.03 mM, and 0.06 mM, respectively was each mixed for each experiment to perform the experiment repeatedly so that the water flea is exposed to the hydrogen peroxide. At this time, in a negative control group of 0.00 mM treatment, 10 mL of an M4 medium was further mixed for unifying volume.\nUpon observation, the heart rate analysis was performed by dividing the section into those before and after exposure to hydrogen peroxide.\nIn order to express the heart rate trend of (B) of FIG. 7, in (A) of FIG. 7, an original heart rate (OHR) was flattened every 30 minutes by a moving average method."}, "[2]": {"tested_on": "water flea", "settings": "0.06 mM-treated test group versus 0.03 mM-treated group; FIG. 8 (d)"}, "[3]": {"settings": "0.03 mM hydrogen peroxide, Group (N=3)"}, "[4]": {"settings": "0.03 mM hydrogen peroxide, specimen #4"}, "[5]": {"settings": "0.03 mM hydrogen peroxide, specimen #5"}, "[6]": {"settings": "0.03 mM hydrogen peroxide, specimen #6"}, "[7]": {"settings": "0.06 mM hydrogen peroxide, Group (N=3)"}, "[8]": {"settings": "0.06 mM hydrogen peroxide, specimen #7"}, "[9]": {"settings": "0.06 mM hydrogen peroxide, specimen #8"}, "[10]": {"settings": "0.06 mM hydrogen peroxide, specimen #9"}}, "note": "Where two headings read alike, the source gives them in different places."}
{"smiles": "OO", "note": "[hydrogen peroxide]", "values": [{"measurement": "change of heart rate (final RHR) relative to the original heart rate (OHR)", "setting": "[1]; 0.03 mM hydrogen peroxide", "result": "−13", "unit": "BPM"}, {"measurement": "decrease of heart rate (final RHR) relative to the original heart rate (OHR)", "setting": "[1]; 0.03 mM hydrogen peroxide", "result": 3.3, "unit": "%"}, {"measurement": "relaxation heart rate (RHR) 0 hr", "setting": "[1]; [3]", "result": "366.81 ± 20.43", "unit": "BPM"}, {"measurement": "RHR normalization relative to 0 hr", "setting": "[1]; [3]", "result": "92.84 ± 5.60", "unit": "%"}, {"measurement": "relaxation heart rate (RHR) 24 hr", "setting": "[1]; [3]", "result": "340.33 ± 21.98", "unit": "BPM"}, {"measurement": "relaxation heart rate (RHR) 0 hr", "setting": "[1]; [4]", "result": "363.22 ± 12.11", "unit": "BPM"}, {"measurement": "RHR normalization relative to 0 hr", "setting": "[1]; [4]", "result": "90.42 ± 4.74", "unit": "%"}, {"measurement": "relaxation heart rate (RHR) 24 hr", "setting": "[1]; [4]", "result": "328.43 ± 18.01", "unit": "BPM"}, {"measurement": "relaxation heart rate (RHR) 0 hr", "setting": "[1]; [5]", "result": "350.78 ± 20.23", "unit": "BPM"}, {"measurement": "RHR normalization relative to 0 hr", "setting": "[1]; [5]", "result": "96.72 ± 1.78", "unit": "%"}, {"measurement": "relaxation heart rate (RHR) 24 hr", "setting": "[1]; [5]", "result": "339.28 ± 6.54", "unit": "BPM"}, {"measurement": "relaxation heart rate (RHR) 0 hr", "setting": "[1]; [6]", "result": "486.43 ± 6.63", "unit": "BPM"}, {"measurement": "RHR normalization relative to 0 hr", "setting": "[1]; [6]", "result": "91.42 ± 6.94", "unit": "%"}, {"measurement": "relaxation heart rate (RHR) 24 hr", "setting": "[1]; [6]", "result": "353.28 ± 27.98", "unit": "BPM"}, {"measurement": "heart rate decrease after 24 hours (normalized average RHR)", "setting": "[1]; 0.03 mM-treated test group", "result": 7.16, "unit": "%"}, {"measurement": "change of heart rate (final RHR) relative to the original heart rate (OHR)", "setting": "[1]; 0.06 mM hydrogen peroxide", "result": "−109", "unit": "BPM"}, {"measurement": "decrease of heart rate (final RHR) relative to the original heart rate (OHR)", "setting": "[1]; 0.06 mM hydrogen peroxide", "result": 22.7, "unit": "%"}, {"measurement": "relaxation heart rate (RHR) 0 hr", "setting": "[1]; [7]", "result": "383.81 ± 12.99", "unit": "BPM"}, {"measurement": "RHR normalization relative to 0 hr", "setting": "[1]; [7]", "result": "73.96 ± 5.61", "unit": "%"}, {"measurement": "relaxation heart rate (RHR) 24 hr", "setting": "[1]; [7]", "result": "279.05 ± 12.71", "unit": "BPM"}, {"measurement": "relaxation heart rate (RHR) 0 hr", "setting": "[1]; [8]", "result": "370.07 ± 25.38", "unit": "BPM"}, {"measurement": "RHR normalization relative to 0 hr", "setting": "[1]; [8]", "result": "74.26 ± 4.33", "unit": "%"}, {"measurement": "relaxation heart rate (RHR) 24 hr", "setting": "[1]; [8]", "result": "274.82 ± 16.01", "unit": "BPM"}, {"measurement": "relaxation heart rate (RHR) 0 hr", "setting": "[1]; [9]", "result": "378.43 ± 15.41", "unit": "BPM"}, {"measurement": "RHR normalization relative to 0 hr", "setting": "[1]; [9]", "result": "79.13 ± 3.88", "unit": "%"}, {"measurement": "relaxation heart rate (RHR) 24 hr", "setting": "[1]; [9]", "result": "299.47 ± 14.70", "unit": "BPM"}, {"measurement": "relaxation heart rate (RHR) 0 hr", "setting": "[1]; [10]", "result": "383.90 ± 13.02", "unit": "BPM"}, {"measurement": "RHR normalization relative to 0 hr", "setting": "[1]; [10]", "result": "68.47 ± 1.93", "unit": "%"}, {"measurement": "relaxation heart rate (RHR) 24 hr", "setting": "[1]; [10]", "result": "262.87 ± 7.41", "unit": "BPM"}, {"measurement": "heart rate decrease after 24 hours (normalized average RHR)", "setting": "[1]; 0.06 mM-treated test group", "result": 25.97, "unit": "%"}, {"measurement": "reactive oxygen species (ROS) level, times higher than the 0.03 mM-treated group", "setting": "[2]", "result": 7.8, "unit": "times"}]}
